Earlier results as cited in EP0713864A1, “Substituted benzoylguanidines, process for their preparation, their use as medicament of diagnostic agent as well as medicaments containing them” (HOECHST AKTIENGESELLSCHAFT, priority 1994, dated 1996).

Test system: Kammerflimmern
Conditions: isolated rat hearts; Eur. Heart J. 9 (suppl.1): 167 (1988)

Row | SMILES | Unterdrückung eines künstlich ausgelösten Kammerflimmerns
1 | N=C(N)NC(=O)c1nc(Cl)c(N)nc1N [Amilorid] | völlig unterdrückt
2 | CCN(c1nc(N)c(C(=O)NC(=N)N)nc1Cl)C(C)C [Ethylisopropylamilorid] | Noch potenter als Amilorid
